Source: patent US8877715B2, “Cytotoxic conjugates having neuropeptide Y receptor binding compound” (priority 2009, dated 2014)

System: Human MCF-7 breast carcinoma cells
Experiment: In vivo growth assay, MCF-7 xenograft (Study A and Study B)
Design: species or system nude mice
Details: Study A
Experimental: Once-weekly treatments were administered for three weeks by tail vein injection except in cases where poor drug solubility or tail necrosis necessitated intraperitoneal injections. […] Example 93 was evaluated in Study B at 55.45 mg/kg, 110.9 mg/kg and 221.8 mg/kg. Antitumor activity was assessed by tumor growth delay (“TGD”) defined as the difference in median time to endpoint tumor size in a treatment group compared to the control group, and by tumor growth inhibition (“TGI”) defined as the difference between median tumor volumes of the treatment and control groups on a study day providing a balance between measurable group responses and large group sizes. Toxicity was evaluated by body weight measurements and clinical observations.
Female nude mice (nu/nu, Harlan) were 10-11 weeks old and had body weight ranges of
The animals were fed ad libitum water (reverse osmosis, 1 ppm Cl) and NIH 31 Modified and Irradiated Lab Diet® consisting of 18.0% crude protein, 5.0% crude fat, and 5.0% crude fiber. The mice were housed on irradiated ALPHA-Dri® Bed-o′ Cobs® Laboratory Animal Bedding in static microisolators on a 12-hour light cycle at 21-22° C.
Human MCF-7 breast carcinoma cells were maintained in RPMI 1640 medium containing 100 units/mL penicillin G sodium, 100 μg/mL streptomycin sulfate, and 25 μg/mL gentamicin. The medium was supplemented with 10% heat-inactivated fetal bovine serum and 2 mM glutamine. Additional buffering was provided with 10 mM HEPES and 0.075% sodium bicarbonate. The tumor cells were cultured in tissue culture flasks in a humidified incubator at 37° C. in an atmosphere of 95% air and 5% CO2.
Three to seven days prior to cell injection, a pellet containing 17-β-estradiol (0.36 mg, 60-day release, Innovative Research of America) was implanted subcutaneously between the scapulae of each mouse.
The MCF-7 tumor cells used for implantation were harvested during log phase growth and resuspended in phosphate-buffered saline at 5×10^7 cells/mL. […] Tumors were monitored twice weekly and then daily as their volumes approached 80-120 mm^3. […] Thus, a separate study (“Study B”) was set up comprising six groups (n=10) of animals. In this study, 17 days elapsed between cell implantation and group assignment. […] Tumor size, in mm^3, was calculated from:
[formula] where w=width and l=length in mm of the MCF-7 tumor. Tumor weight may be estimated with the assumption that 1 mg is equivalent to 1 mm^3 of tumor volume.
Example 93 dosing solutions were prepared fresh in 0.1N acetic acid for each day of treatment.
Camptothecin (Lot No. 034K3648, Sigma) stock solutions were made from 60% DMA and 40% Tween 80 and stored at room temperature during the study. Dosing solutions were prepared fresh on each day of dosing by diluting the stocks 1:20 in saline.
The treatment plans are summarized in Table 3A for Study A and Table 3B for Study B.
All treatments and vehicles were given once-weekly for three doses (“qwk×3”). Group 1 mice received no gavage and no injections, and served as a control for tumor progression and estrogen toxicity. Group 2 animals received vehicle.
Each treatment dose was administered in a volume of 0.2 mL per 20 g of body weight, and was scaled to the body weight of the animal.
Median tumor growth curves of FIGS. 1-3 show median tumor volumes as a function of time. When an animal exited the study due to tumor size, the final tumor volume recorded for the animal was included with the data used to calculate the group median tumor volume at subsequent time points. Curves were truncated after 50% of animals in a group had exited the study.

Substance: [camptothecin-rvD-Asp-Suc-Tyr^1, Nle^17, 4Hyp^34]hNPY(1-36)-NH2 [Example 92]
- tumor growth inhibition (TGI) (Day 18): dose-related, significantly so at 110.6 and 221.2 mg/kg, and of potential therapeutic value at the higher dose level
- mean tumor volume (G 7: 55.3 mg/kg qwk x 3, D 1): 124.1 mm^3
- mean tumor volume (G 7: 55.3 mg/kg qwk x 3, D 4): 112.3 mm^3
- mean tumor volume (G 7: 55.3 mg/kg qwk x 3, D 7): 139.2 mm^3
- mean tumor volume (G 7: 55.3 mg/kg qwk x 3, D 11): 168.4 mm^3
- mean tumor volume (G 7: 55.3 mg/kg qwk x 3, D 14): 250.9 mm^3
- mean tumor volume (G 7: 55.3 mg/kg qwk x 3, D 18): 242.9 mm^3
- mean tumor volume (G 7: 55.3 mg/kg qwk x 3, D 21): 262.5 mm^3
- mean tumor volume (G 7: 55.3 mg/kg qwk x 3, D 25): 385.9 mm^3
- mean tumor volume (G 7: 55.3 mg/kg qwk x 3, D 28): 505.1 mm^3
- mean tumor volume (G 7: 55.3 mg/kg qwk x 3, D 32): 532.2 mm^3
- mean tumor volume (G 7: 55.3 mg/kg qwk x 3, D 35): 631 mm^3
- mean tumor volume (G 7: 55.3 mg/kg qwk x 3, D 39): 978 mm^3
- mean tumor volume (G 8: 110.6 mg/kg qwk x 3, D 1): 124.1 mm^3
- mean tumor volume (G 8: 110.6 mg/kg qwk x 3, D 4): 130.8 mm^3
- mean tumor volume (G 8: 110.6 mg/kg qwk x 3, D 7): 127.5 mm^3
- mean tumor volume (G 8: 110.6 mg/kg qwk x 3, D 11): 146 mm^3
- mean tumor volume (G 8: 110.6 mg/kg qwk x 3, D 14): 184.6 mm^3
- mean tumor volume (G 8: 110.6 mg/kg qwk x 3, D 18): 187.9 mm^3
- mean tumor volume (G 8: 110.6 mg/kg qwk x 3, D 21): 216.2 mm^3
- mean tumor volume (G 8: 110.6 mg/kg qwk x 3, D 25): 337.3 mm^3
- mean tumor volume (G 8: 110.6 mg/kg qwk x 3, D 28): 439.6 mm^3
- mean tumor volume (G 8: 110.6 mg/kg qwk x 3, D 32): 454.8 mm^3
- mean tumor volume (G 8: 110.6 mg/kg qwk x 3, D 35): 550.5 mm^3
- mean tumor volume (G 8: 110.6 mg/kg qwk x 3, D 39): 938 mm^3
- mean tumor volume (G 9: 221.2 mg/kg qwk x 3, D 1): 124.1 mm^3
- mean tumor volume (G 9: 221.2 mg/kg qwk x 3, D 4): 118.3 mm^3
- mean tumor volume (G 9: 221.2 mg/kg qwk x 3, D 7): 118.9 mm^3
- mean tumor volume (G 9: 221.2 mg/kg qwk x 3, D 11): 118.8 mm^3
- mean tumor volume (G 9: 221.2 mg/kg qwk x 3, D 14): 109.4 mm^3
- mean tumor volume (G 9: 221.2 mg/kg qwk x 3, D 18): 129.5 mm^3
- mean tumor volume (G 9: 221.2 mg/kg qwk x 3, D 21): 150.1 mm^3
- mean tumor volume (G 9: 221.2 mg/kg qwk x 3, D 25): 172.2 mm^3
- mean tumor volume (G 9: 221.2 mg/kg qwk x 3, D 28): 197.7 mm^3
- mean tumor volume (G 9: 221.2 mg/kg qwk x 3, D 32): 213.8 mm^3
- mean tumor volume (G 9: 221.2 mg/kg qwk x 3, D 35): 301.7 mm^3
- mean tumor volume (G 9: 221.2 mg/kg qwk x 3, D 39): 372 mm^3
- tumor regressions (highest dose level (222.6 or 221.2 mg/kg), TGD-evaluated sample): 3/5
- tumor growth delay (TGD) (three dose levels, qwk x 3): dose-related TGD, reaching statistical significance
